ChEMBL document CHEMBL5357030, “Caged Xanthones and Biphenyls Isolated from the Tropical Plant Garcinia lateriflora” (J Nat Prod, 2024)
pIC50: −log10 of the molar value.

What was measured:
Type in all cases: functional, cell-based
A549 = assay: Antiproliferative activity against human A549 cells assessed as inhibition of cell growth incubated for 72 hrs by SRB assay; conditions: A549, 72 h
[1] = Antiproliferative activity against human KB-VIN cells overexpressing p-gp assessed as inhibition of cell growth incubated for 72 hrs by SRB assay; conditions: KBVIN
MCF7 = assay: Antiproliferative activity against HER2-negative human MCF7 cells assessed as inhibition of cell growth incubated for 72 hrs by SRB assay; conditions: MCF7, 72 h
KB = assay: Antiproliferative activity against human KB cells assessed as inhibition of cell growth incubated for 72 hrs by SRB assay
MDA-MB-231 = assay: Antiproliferative activity against triple negative human MDA-MB-231 cells assessed as inhibition of cell growth incubated for 72 hrs by SRB assay; conditions: MDA-MB-231, 72 h

Row | Compound | pIC50 (A549) | pIC50 (MCF7) | pIC50 (KB) | pIC50 (MDA-MB-231) | pIC50 [1]
1 | C=CC(C)(C)c1c2c(c(O)c3c1O[C@]14[C@H](C3=O)[C@@H](OC)[C@H]3C[C@H]1C(C)(C)O[C@@]4(C/C=C(\C)C(=O)O)C3=O)C=CC(C)(C)O2 | < 5.00 | 4.98 | 5.21 | < 5.00 | < 5.00
2 | COc1cc(-c2ccc(O)c(C/C=C(/C)CO)c2)cc(O)c1O | < 5.00 | < 5.00 | < 5.00 | < 5.00 | < 5.00
3 | COc1cc(-c2ccc(O)c(CCC(C)CO)c2)cc(O)c1O (stereo not drawn) | < 5.00 | < 5.00 | < 5.00 | < 5.00 | < 5.00
4 | COc1cc(-c2ccc3c(c2)C=CC(C)(C)O3)cc(O)c1O | < 5.00 | < 5.00 | < 5.00 | < 5.00 | < 5.00
5 | COc1c(O)c(O)cc(-c2ccccc2)c1CC=C(C)C | < 5.00 | < 5.00 | < 5.00 | < 5.00 | < 5.00

Now those with a higher pIC50 (KB), led by results:

Row | pIC50 (A549) | pIC50 (MCF7) | pIC50 (KB) | pIC50 (MDA-MB-231) | Compound | pIC50 [1]
6 | 5.21 | 5.17 | 5.28 | 5.19 | C=CC(C)(C)c1c2c(c(O)c3c1OC(C)(C)[C@H]1CCC(C)=C[C@@H]31)C(=O)[C@@H]1[C@@H](O)[C@@H]3C[C@H]4C(C)(C)O[C@@](C/C=C(\C)C(=O)O)(C3=O)[C@@]14O2 | 5.24
7 | 5.25 | 5.19 | 5.28 | 5.24 | C=CC(C)(C)c1c2c(c(O)c3c1OC(C)(C)[C@H]1CCC(C)=C[C@@H]31)C(=O)[C@@H]1[C@@H](OC)[C@@H]3C[C@H]4C(C)(C)O[C@@](C/C=C(\C)C(=O)O)(C3=O)[C@@]14O2 | 5.28
8 | 5.52 | 5.49 | 5.74 | 5.54 | C=CC(C)(C)c1c2c(c(O)c3c1OC(C)(C)[C@H]1CCC(C)=C[C@@H]31)C(=O)C1=C[C@@H]3C[C@H]4C(C)(C)O[C@@](C/C=C(/C)C(=O)O)(C3=O)[C@@]14O2 | 5.40
9 | 6.10 | 5.89 | 6.22 | 6.30 | C=CC(C)(C)c1c2c(c(O)c3c1O[C@]14C(=C[C@@H]5C[C@H]1C(C)(C)O[C@@]4(C/C=C(\C)C(=O)O)C5=O)C3=O)C=CC(C)(C)O2 | 6.22
10 | 5.54 | 5.25 | 5.92 | 5.34 | C=CC(C)(C)c1c2c(c(O)c3c1OC(C)(C)[C@H]1CCC(C)=C[C@@H]31)C(=O)C1=C[C@@H]3C[C@H]4C(C)(C)O[C@@](C/C=C(\C)C(=O)O)(C3=O)[C@@]14O2 | 5.28
11 | – | – | > 10.00 | 9.05 | CC(=O)O[C@H]1C(=O)[C@@]2(C)[C@H]([C@H](OC(=O)c3ccccc3)[C@]3(O)C[C@H](OC(=O)[C@H](O)[C@@H](NC(=O)c4ccccc4)c4ccccc4)C(C)=C1C3(C)C)[C@]1(OC(C)=O)CO[C@@H]1C[C@@H]2O [PACLITAXEL] | 5.66
